Numbered stars: 1 amine (or outer) side, 2 acyl side, 3 side chain; on linkers, the order of the positions; unused ones are H or OH. Side chains are listed from the residue outwards. Ends that are not written are not given here. Peptide text beside a SMILES is read from it. * marks the point of attachment. TTDA(Palmitoyl) = CCCCCCCCCCCCCCCC(=O)NCCCOCCOCCOCCCN*; Palmitoyl = CCCCCCCCCCCCCCCC(=O)*; Suc = O=C(CCC(=O)[*:2])[*:1]; GABA = NCCCC(=O)O
How the values were obtained:
[1] = test system: Wistar rats; experiment: Food intake in fasted rats after SC injection; assay type: in vivo; settings: overnight fasted rats, compared to controls given vehicle
Method: NMRI mice, C57BL/6 mice, and Wistar rats (AnLab, Prague, Czech Republic) were housed in a temperature of 23° C. and a daily cycle of 12 h light and dark (light from 6:00). They were given ad libitum water and a standard chow diet that contained 25, 9 and 66% of calories of protein, fat and carbohydrate respectively. Energy content of the feed was 3.4 kcal/g (St-1, Mlýn Kocanda, Czech Republic). Db/db mice and their controls (C57BL/6 background) were obtained from Taconic (Denmark), housed under the same conditions as described above, and fed by Altromin (Taconic, Denmark). ZDF-Lepr^fa/Crl, diabetic fa/fa male rats were obtained from Charles River (France), housed under same conditions as described above, and fed with a Purina 5008 diet (IPS Product Supplies Limited, UK). All experiments followed the ethical guidelines for animal experiments and the law of the Czech Republic Nr. 246/1992.
In experiments with C57BL/6 mice or Wistar rats, food intake was measured with overnight fasted animals in individual cages. Food was withdrawn 17 hours prior to injection of lipidated analog of prolactin releasing peptide (PrRP); free access to water was maintained. The administration of either saline, PrRP, or lipidated analogs was performed by SC injection at doses of 1-10 mg/kg (which corresponded to a volume of 0.2 ml/mouse and 0.1 ml/100 g weight of rat). Fifteen minutes after the lipidated analog of prolactin releasing peptide (PrRP) administration, the mice were given pre-weighed food. The food was then weighed every 30 minutes for 5-10 hours. The administration of each dose was performed at least twice, and each group of mice consisted of at least 6 mice.

[2] = test system: C57BL/6 mice; experiment: Food intake in fasted mice after SC injection; assay type: in vivo; settings: 5 mg/kg SC, 45 min after injection
How it was run: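 Saline, PrRP or a lipidated analog was injected SC (1-10 mg/kg) after a 17 h fast with free water, animals housed singly.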

[3] = molecular target: T1, human PrRP receptor GPR10 (Homo sapiens, UniProt P49683); experiment: Competitive binding in CHO cells transfected with human GPR10 (human 125I-PrRP31); settings: for Ki: CHO cells, human 125I-PrRP31, read-out: Ki, GPR10 human receptor transfected in CHO cells; for % of PrRP31, GPR10 human receptor transfected in CHO cells: affinity relative to PrRP31
T1 construct: host or cells: CHO cells
T1 sequence (P49683 1-370): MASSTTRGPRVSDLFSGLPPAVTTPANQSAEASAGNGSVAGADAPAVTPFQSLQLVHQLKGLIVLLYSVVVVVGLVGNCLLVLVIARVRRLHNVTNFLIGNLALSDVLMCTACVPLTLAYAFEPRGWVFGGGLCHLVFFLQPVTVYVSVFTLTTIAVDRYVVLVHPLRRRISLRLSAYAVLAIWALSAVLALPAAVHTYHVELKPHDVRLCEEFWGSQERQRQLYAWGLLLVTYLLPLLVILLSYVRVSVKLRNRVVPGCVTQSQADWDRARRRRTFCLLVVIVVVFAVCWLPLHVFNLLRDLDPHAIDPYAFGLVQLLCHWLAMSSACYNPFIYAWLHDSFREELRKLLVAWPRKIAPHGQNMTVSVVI
How it was run: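 Values from one-site nonlinear regression of displacement curves: analogs (final 10^-11 to 10^-4 mol·l^-1) competed with 125I-PrRP31 (final 5×10^-11 mol·l^-1) on adherent human GPR10 CHO cells. Binding ran 1 h at room temperature, pH 7.4 buffer with NaCl, MgCl2, CaCl2, glucose, BSA; cell-bound radioactivity counted after NaOH lysis.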

[4] = molecular target: T2, rat PrRP receptor (Rattus norvegicus, UniProt Q64121); experiment: Competitive binding in RC-4B/C rat pituitary cells (125I-rat PrRP31); settings: for Ki: RC-4B/C cells, displacement of 125I-rat PrRP31, read-out: Ki, RC-4B/C rat pituitary cells ^25I-rat PrRP31; for % of PrRP31, RC-4B/C rat pituitary cells: affinity relative to PrRP31
T2 construct: host or cells: RC-4B/C rat pituitary cell line
T2 sequence (Q64121 1-370): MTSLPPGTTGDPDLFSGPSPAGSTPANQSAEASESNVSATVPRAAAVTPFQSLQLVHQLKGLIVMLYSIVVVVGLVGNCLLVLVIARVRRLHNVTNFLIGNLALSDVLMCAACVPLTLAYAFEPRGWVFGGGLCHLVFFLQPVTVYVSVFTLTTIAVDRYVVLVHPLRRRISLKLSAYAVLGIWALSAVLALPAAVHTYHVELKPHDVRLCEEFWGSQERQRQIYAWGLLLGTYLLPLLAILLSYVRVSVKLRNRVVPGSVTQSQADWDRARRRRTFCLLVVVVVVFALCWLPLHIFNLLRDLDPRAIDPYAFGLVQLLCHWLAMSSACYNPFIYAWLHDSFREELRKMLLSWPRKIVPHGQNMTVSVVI
How it was run: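 Displacement of rat 125I-PrRP31 ([…]) by test analogs, 10^−11–10^−4 mol·l^−1, on whole RC-4B/C cells, 60 min RT. Bound counts measured by γ-counter in duplicate, ≥3 repeats, analyzed by nonlinear one-site binding regression.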

CCCCCCCCCCCCCCCC(=O)NCCCC[C@H](NC(=O)[C@@H](NC(=O)[C@H](CCC(=O)O)NC(=O)[C@H](CCSC)NC(=O)[C@H](CO)NC(=O)[C@H](Cc1c[nH]cn1)NC(=O)[C@H](CCCNC(=N)N)NC(=O)[C@H](Cc1c[nH]cn1)NC(=O)[C@@H](NC(=O)[C@H](CCCNC(=N)N)NC(=O)[C@@H](N)CO)[C@@H](C)O)[C@@H](C)CC)C(=O)N[C@H](C(=O)N1CCC[C@H]1C(=O)N[C@@H](CC(=O)O)C(=O)N[C@H](C(=O)N[C@@H](CC(N)=O)C(=O)N1CCC[C@H]1C(=O)N[C@@H](C)C(=O)N[C@@H](Cc1c[nH]c2ccccc12)C(=O)N[C@@H](Cc1ccc(O)cc1)C(=O)N[C@@H](C)C(=O)N[C@@H](CO)C(=O)N[C@@H](CCCNC(=N)N)C(=O)NCC(=O)N[C@H](C(=O)N[C@@H](CCCNC(=N)N)C(=O)N1CCC[C@H]1C(=O)N[C@H](C(=O)NCC(=O)N[C@@H](CCCNC(=N)N)C(=O)N[C@@H](Cc1ccccc1)C(N)=O)C(C)C)[C@@H](C)CC)[C@@H](C)CC)[C@@H](C)O [Analog 48] (H-SRTHRHSMEIK(Palmitoyl)TPDINPAWYASRGIRPVGRF-NH2)
Food intake in rats [1]: significantly reduced | Food intake in mice % of saline-treated group [2]: 13% | Ki [3]: 6.37 ± 0.78 nM | % of PrRP31, GPR10 human receptor transfected in CHO cells [3]: 61%

CCCCCCCCCCCCCCCC(=O)NCCCC(=O)NCCCC[C@H](NC(=O)[C@@H](NC(=O)[C@H](CCC(=O)O)NC(=O)[C@H](CCSC)NC(=O)[C@H](CO)NC(=O)[C@H](Cc1c[nH]cn1)NC(=O)[C@H](CCCNC(=N)N)NC(=O)[C@H](Cc1c[nH]cn1)NC(=O)[C@@H](NC(=O)[C@H](CCCNC(=N)N)NC(=O)[C@@H](N)CO)[C@@H](C)O)[C@@H](C)CC)C(=O)N[C@H](C(=O)N1CCC[C@H]1C(=O)N[C@@H](CC(=O)O)C(=O)N[C@H](C(=O)N[C@@H](CC(N)=O)C(=O)N1CCC[C@H]1C(=O)N[C@@H](C)C(=O)N[C@@H](Cc1c[nH]c2ccccc12)C(=O)N[C@@H](Cc1ccc(O)cc1)C(=O)N[C@@H](C)C(=O)N[C@@H](CO)C(=O)N[C@@H](CCCNC(=N)N)C(=O)NCC(=O)N[C@H](C(=O)N[C@@H](CCCNC(=N)N)C(=O)N1CCC[C@H]1C(=O)N[C@H](C(=O)NCC(=O)N[C@@H](CCCNC(=N)N)C(=O)N[C@@H](Cc1ccccc1)C(N)=O)C(C)C)[C@@H](C)CC)[C@@H](C)CC)[C@@H](C)O [Analog 53] (H-SRTHRHSMEIK([GABA-Palmitoyl])TPDINPAWYASRGIRPVGRF-NH2)
Food intake in rats [1]: significantly reduced | Food intake in mice % of saline-treated group [2]: 25% | Ki [4]: 1.26 ± 0.57 nM | % of PrRP31, RC-4B/C rat pituitary cells [4]: 190% | Ki [3]: 9.19 ± 0.96 nM | % of PrRP31, GPR10 human receptor transfected in CHO cells [3]: 42.5%

CCCCCCCCCCCCCCCC(=O)N[C@@H](CCC(=O)N[C@@H](CO)C(=O)N[C@@H](CCCNC(=N)N)C(=O)N[C@H](C(=O)N[C@@H](Cc1c[nH]cn1)C(=O)N[C@@H](CCCNC(=N)N)C(=O)N[C@@H](Cc1c[nH]cn1)C(=O)N[C@@H](CO)C(=O)N[C@@H](CCSC)C(=O)N[C@@H](CCC(=O)O)C(=O)N[C@H](C(=O)N[C@@H](CCCNC(=N)N)C(=O)N[C@H](C(=O)N1CCC[C@H]1C(=O)N[C@@H](CC(=O)O)C(=O)N[C@H](C(=O)N[C@@H](CC(N)=O)C(=O)N1CCC[C@H]1C(=O)N[C@@H](C)C(=O)N[C@@H](Cc1c[nH]c2ccccc12)C(=O)N[C@@H](Cc1ccc(O)cc1)C(=O)N[C@@H](C)C(=O)N[C@@H](CO)C(=O)N[C@@H](CCCNC(=N)N)C(=O)NCC(=O)N[C@H](C(=O)N[C@@H](CCCNC(=N)N)C(=O)N1CCC[C@H]1C(=O)N[C@H](C(=O)NCC(=O)N[C@@H](CCCNC(=N)N)C(=O)N[C@@H](Cc1ccccc1)C(N)=O)C(C)C)[C@@H](C)CC)[C@@H](C)CC)[C@@H](C)O)[C@@H](C)CC)[C@@H](C)O)C(=O)O [Analog 54]
Food intake in rats [1]: significantly reduced | Food intake in mice % of saline-treated group [2]: 14% | Ki [4]: 0.5 ± 0.13 nM | % of PrRP31, RC-4B/C rat pituitary cells [4]: 119% | % of PrRP31, GPR10 human receptor transfected in CHO cells [3]: 57%

CCCCCCCCCCCCCCCC(=O)NCCCOCCOCCOCCCNC(=O)CCC(=O)NCCCC[C@H](NC(=O)[C@@H](NC(=O)[C@H](CCC(=O)O)NC(=O)[C@H](CCSC)NC(=O)[C@H](CO)NC(=O)[C@H](Cc1c[nH]cn1)NC(=O)[C@H](CCCNC(=N)N)NC(=O)[C@H](Cc1c[nH]cn1)NC(=O)[C@@H](NC(=O)[C@H](CCCNC(=N)N)NC(=O)[C@H](CO)NC(=O)CCC(=O)NCCCOCCOCCOCCCNC(=O)CCCCCCCCCCCCCCC)[C@@H](C)O)[C@@H](C)CC)C(=O)N[C@H](C(=O)N1CCC[C@H]1C(=O)N[C@@H](CC(=O)O)C(=O)N[C@H](C(=O)N[C@@H](CC(N)=O)C(=O)N1CCC[C@H]1C(=O)N[C@@H](C)C(=O)N[C@@H](Cc1c[nH]c2ccccc12)C(=O)N[C@@H](Cc1ccc(O)cc1)C(=O)N[C@@H](C)C(=O)N[C@@H](CO)C(=O)N[C@@H](CCCNC(=N)N)C(=O)NCC(=O)N[C@H](C(=O)N[C@@H](CCCNC(=N)N)C(=O)N1CCC[C@H]1C(=O)N[C@H](C(=O)NCC(=O)N[C@@H](CCCNC(=N)N)C(=O)N[C@@H](Cc1ccccc1)C(N)=O)C(C)C)[C@@H](C)CC)[C@@H](C)CC)[C@@H](C)O [Analog 59] ({TTDA(Palmitoyl)-Suc}-SRTHRHSMEIK([Suc-TTDA(Palmitoyl)])TPDINPAWYASRGIRPVGRF-NH2)
Food intake in mice % of saline-treated group [2]: 23% | % of PrRP31, RC-4B/C rat pituitary cells [4]: 85% | Ki [3]: 32.4 ± 3.57 nM | % of PrRP31, GPR10 human receptor transfected in CHO cells [3]: 12%

SRAHQHSMETRTPDINPAWYTGRGIRPVGRF-NH2 [Rat PrRP31, reference compound]
Food intake in mice % of saline-treated group [2]: 100% | % of PrRP31, RC-4B/C rat pituitary cells [4]: 100% | % of PrRP31, GPR10 human receptor transfected in CHO cells [3]: 100%

TPDINPAWYTGRGIRPVGRF-NH2 [Rat PrRP20, reference compound]
Food intake in mice % of saline-treated group [2]: 100% | % of PrRP31, RC-4B/C rat pituitary cells [4]: 143% | Ki [3]: 5.56 ± 0.7 nM | % of PrRP31, GPR10 human receptor transfected in CHO cells [3]: 70%
